Reference: patent US4503256A, “Phlorophenone derivatives, processes for preparing such compounds, uses and pharmaceutical compositions of phlorophenone compounds” (Noristan Limited, priority 1981, dated 1985)
Converted amounts (≈) assume the structure as drawn. Like-named read-outs stand apart in the source and are kept apart here.

How the values were obtained:
S. AUREUS = assay: Minimum Inhibitory Concentration (MIC), broth dilution in Brain Heart Infusion broth; type: cell-based, Staphylococcus aureus; details: Staphylococcus aureus, read-out: MIC S. AUREUS
Experimental: (§1) For testing against the bacteria, concentrations of each of the compounds were prepared in Brain Heart Infusion broth (Oxoid CM225) in two-fold steps from 1000 μg/ml to 1 μg/ml. Solutions containing 1000 μg/ml were prepared by dissolving 20 mg of each compound in 5 ml of acetone and this was then made up to 20 ml with Brain Heart Infusion Broth. Serial two-fold dilutions were then prepared in the broth down to 1 μg/ml.
(§2) For testing against the bacteria each of the prepared test concentrations and acetone controls prepared in Brain Heart Infusion were dispensed in 2 ml amounts for each organism. A growth control of 2 ml of Brain Heart Infusion was included in each series.
(§3) To each of the prepared sets of concentrations of each compound were added 0.1 ml aliquots of the organism suspensions prepared as described previously. All the bottles were incubated at 37° C. for 48 hours in the case of the bacteria and from 5 to 15 days for the fungi (until growth controls had grown in each case).
(§4) After incubation the broths were examined for evidence of growth. The lowest concentration of the test compound which prevented growth was recorded as the Minimum Inhibitory Concentration (MIC).

St. PYOGENES = assay: as above; type: cell-based; details: Streptococcus pyogenes, 37° C., 48 hours
Experimental: as §1, §2, §3, §4

C. ALBICANS = assay: Minimum Inhibitory Concentration (MIC), dilution in Sabouraud liquid medium; type: cell-based; details: Candida albicans, 37° C., 5 to 15 days
Experimental: (§5) For testing against the fungi, concentrations of each of the compounds were prepared in Sabouraud liquid medium in two-fold steps from 100 μg/ml to 0.1 μg/ml. 500 μg/ml solutions were prepared by dissolving 10 mg in 5 ml of acetone, made up to 20 ml with Sabouraud liquid medium. 4 ml of the 500 μg/ml concentration was then made up to 20 ml with Sabouraud liquid medium to give a concentration of 100 μg/ml. Serial two-fold dilutions were prepared from this in the same medium down to 0.1 μg/ml.
(§6) For the fungi the same procedure was followed using the concentrations made up in Sabouraud liquid medium. The Nystatin concentrations were also dispensed in 2 ml amounts for each organism. Growth controls of Sabouraud liquid medium were included in each series.
as §3, §4

Mic. CANIS = assay: as above; type: cell-based; details: Microsporum canis, 37° C., 5 to 15 days
Experimental: as §5, §6, §3, §4

Sp. SCHENKII = assay: as above; type: cell-based; details: 37° C., 5 to 15 days
Experimental: as §5, §6, §3, §4

Tr. MENTAGROPHYTES = assay: as above; type: cell-based; details: Trichophyton mentagrophytes, 37° C., 5 to 15 days
Experimental: as §5, §6, §3, §4

Tr. RUBRUM = assay: as above; type: cell-based; details: Trichophyton rubrum, 37° C., 5 to 15 days
Experimental: as §5, §6, §3, §4

[1] = Acute oral toxicity in CD-1 mice; type: in vivo; details: mouse, in vivo, male and female CD-1 mice, dose levels 1000, 464, 215 and 100 mg/kg, 7 days observation
Experimental: Male and female CD-1 mice were fasted for 18 hours prior to the experiment, but water was available ad libitum except during the observation period. The test compounds were prepared in 1% tragacanth and were administered orally to groups of two male and two female mice.
All compounds were tested at dose levels of 1000, 464, 215 and 100 mg/kg. Immediately after dosing, the mice were replaced in their "home" cage and were observed daily for 7 days post dose and any mortalities recorded.
The acute toxicities, as determined by the above procedure, of a number of representative compounds are given in the accompanying table.

[2] = 37° C., 48 hours, Brain Heart Infusion broth

SMILES | MIC (S. AUREUS; [2]) | MIC (St. PYOGENES) | MIC (C. ALBICANS) | MIC (Mic. CANIS) | MIC (Sp. SCHENKII) | MIC (Tr. MENTAGROPHYTES) | MIC (Tr. RUBRUM) | LD50 at 168 h [1] | MIC (S. AUREUS; 48 h)
C=CCc1c(O)cc(O)c(C(=O)CCCCC)c1O [Compound 18] | 16 µg/mL (≈ 60.5 µM) | 8 µg/mL (≈ 30.3 µM) | 13 µg/mL (≈ 49.2 µM) | 6 µg/mL (≈ 22.7 µM) | 13 µg/mL (≈ 49.2 µM) | 6 µg/mL (≈ 22.7 µM) | 13 µg/mL (≈ 49.2 µM) | > 1000 mg/kg | –
C=CCc1c(O)cc(O)c(C(=O)CCC(C)C)c1O [Compound 19] | 16 µg/mL (≈ 60.5 µM) | 4 µg/mL (≈ 15.1 µM) | 25 µg/mL (≈ 94.6 µM) | 6 µg/mL (≈ 22.7 µM) | 13 µg/mL (≈ 49.2 µM) | 13 µg/mL (≈ 49.2 µM) | 6 µg/mL (≈ 22.7 µM) | > 1000 mg/kg | –
C=CCc1c(O)cc(O)c(C(=O)C2CCCCC2)c1O [Compound 20] | 32 µg/mL (≈ 116 µM) | 8 µg/mL (≈ 29 µM) | 25 µg/mL (≈ 90.5 µM) | 13 µg/mL (≈ 47 µM) | 25 µg/mL (≈ 90.5 µM) | 13 µg/mL (≈ 47 µM) | 25 µg/mL (≈ 90.5 µM) | > 1000 mg/kg | –
C=CCc1c(O)cc(O)c(C(=O)Cc2ccc(Cl)cc2)c1O [Compound 23] | 32 µg/mL (≈ 100 µM) | 8 µg/mL (≈ 25.1 µM) | 13 µg/mL (≈ 40.8 µM) | 6 µg/mL (≈ 18.8 µM) | 25 µg/mL (≈ 78.4 µM) | 13 µg/mL (≈ 40.8 µM) | 13 µg/mL (≈ 40.8 µM) | > 1000 mg/kg | –
CCCC(=O)c1c(O)cc(O)c(Cc2ccccc2)c1O [Compound 24, 2-Butyryl-4-benzylphloroglucinol] | 16 µg/mL (≈ 55.9 µM) | 8 µg/mL (≈ 27.9 µM) | 25 µg/mL (≈ 87.3 µM) | 13 µg/mL (≈ 45.4 µM) | 25 µg/mL (≈ 87.3 µM) | 13 µg/mL (≈ 45.4 µM) | 6 µg/mL (≈ 21 µM) | 1000 mg/kg | –
CC(C)CCC(=O)c1c(O)cc(O)c(Cc2ccccc2)c1O [Compound 25, 2-Isocaproyl-4-benzylphloroglucinol] | 16 µg/mL (≈ 50.9 µM) | 8 µg/mL (≈ 25.4 µM) | 13 µg/mL (≈ 41.4 µM) | 6 µg/mL (≈ 19.1 µM) | 25 µg/mL (≈ 79.5 µM) | 3 µg/mL (≈ 9.54 µM) | 6 µg/mL (≈ 19.1 µM) | 1000 mg/kg | –
CCCCCCCCC(=O)c1c(O)cc(O)c(Cc2ccccc2)c1O [Compound 27, 2-Nonanoyl-4-benzylphloroglucinol] | – | 1 µg/mL (≈ 2.81 µM) | 100 µg/mL (≈ 281 µM) | 50 µg/mL (≈ 140 µM) | 50 µg/mL (≈ 140 µM) | 5 µg/mL (≈ 14 µM) | > 100 µg/mL | > 1000 mg/kg | 2 µg/mL (≈ 5.61 µM)
CCCC(=O)c1c(O)cc(O)c2c1OC(C)(C)CC2 [Compound 30, 5,7-dihydroxy-2,2-dimethyl-8-butyryl chroman] | 32 µg/mL (≈ 121 µM) | 32 µg/mL (≈ 121 µM) | 25 µg/mL (≈ 94.6 µM) | 6 µg/mL (≈ 22.7 µM) | 25 µg/mL (≈ 94.6 µM) | 13 µg/mL (≈ 49.2 µM) | 13 µg/mL (≈ 49.2 µM) | > 1000 mg/kg | –
CC(C)CCC(=O)c1c(O)cc(O)c2c1OC(C)(C)CC2 [Compound 31, 5,7-Dihydroxy-2,2-dimethyl-8-isocaproylchroman] | 16 µg/mL (≈ 54.7 µM) | 8 µg/mL (≈ 27.4 µM) | 100 µg/mL (≈ 342 µM) | 13 µg/mL (≈ 44.5 µM) | 6 µg/mL (≈ 20.5 µM) | 6 µg/mL (≈ 20.5 µM) | 25 µg/mL (≈ 85.5 µM) | > 1000 mg/kg | –
CCCCCCCCC(=O)c1c(O)cc(O)c2c1OC(C)(C)CC2 [Compound 32, 5,7-Dihydroxy-2,2-dimethyl-8-nonanoyl chroman] | 64 µg/mL (≈ 191 µM) | < 1 µg/mL | 100 µg/mL (≈ 299 µM) | 100 µg/mL (≈ 299 µM) | 100 µg/mL (≈ 299 µM) | > 100 µg/mL | > 100 µg/mL | > 1000 mg/kg | –
CC(C)CCC(=O)c1c(O)cc2c(c1O)CCC(C)(C)O2 [Compound 33, 5,7-dihydroxy-2,2-dimethyl-6-isocaproyl chroman] | 125 µg/mL (≈ 428 µM) | 64 µg/mL (≈ 219 µM) | 100 µg/mL (≈ 342 µM) | 100 µg/mL (≈ 342 µM) | > 100 µg/mL | > 100 µg/mL | 25 µg/mL (≈ 85.5 µM) | > 1000 mg/kg | –
CCCCCCCCC(=O)c1c(O)cc2c(c1O)CCC(C)(C)O2 [Compound 34, 5,7-dihydroxy-2,2-dimethyl-6-nonanoyl chroman] | 500 µg/mL (≈ 1490 µM) | 4 µg/mL (≈ 12 µM) | 100 µg/mL (≈ 299 µM) | > 100 µg/mL | > 100 µg/mL | > 100 µg/mL | 100 µg/mL (≈ 299 µM) | > 1000 mg/kg | –
